Reference: article PMC11597817, “Modulation of Multispecific Transporters by Uncaria tomentosa Extract and Its Major Phytoconstituents” (Pharmaceutics, 2024)

Assays:
[1] = system: HEK293-Mock-B; experiment: Antiproliferative MTT assay; format: cell-based, human; details: 30 μM pure natural product, 72 h
Experimental: (§1) For the determination of the antiproliferative properties of the prepared extract and selected alkaloids (isopteropodine, mitraphylline, and uncarine D), an MTT assay was applied on our […] cell panel (see Table S4). […] All were maintained in a minimal essential medium completed with 10% fetal bovine serum, 1% non-essential amino acids, and 1% penicillin–streptomycin at 37 °C in a humidified atmosphere containing 5% CO2. All cell lines were purchased from the European Collection of Cell Cultures (Salisbury, UK), except for SiHa and C33A, which were from the American Tissue Culture Collection, LGC Standards GmbH (Wesel, Germany). Cell culture media and supplements were obtained from Lonza Group Ltd. (Basel, Switzerland). Cells were seeded into 96-well plates (C33A 10,000/well, all others 5000/well); after overnight incubation, the test substances were added and incubated for another 72 h under cell-culturing conditions. Uncaria tomentosa extract and the alkaloids were tested in the 1–90 μg/mL and 1–30 μM ranges, respectively. Finally, 20 μL of 5 mg/mL MTT solution was added to each well and incubated for 4 h; the medium was discarded, and the precipitated formazan crystals were dissolved in DMSO for 60 min with shaking. The absorbance was determined using a microplate reader (SPECTROstar Nano, BMG Labtech GmbH). Two independent experiments were performed with five parallels for each condition. Cisplatin, a clinically used anticancer agent (Ebewe GmbH, Unterach, Austria), was included as a reference compound. Calculations were conducted using the GraphPad Prism 10.0 software (GraphPad Software Inc., San Diego, CA, USA).
(§2) Table S4 – Antiproliferative properties of Uncaria tomentosa extract, three natural products (isopteropodine, mitraphylline, and uncarine D) and the
(§3) reference agent cisplatin.
(§4) Cell line Uncaria tomentosa isopteropodine mitraphylline uncarine D [95% confidence
(§5) 1: The highest applied concentration was 90 μg/mL and 30 μM for the extract and the pure natural products, respectively.
(§6) 2: Inhibitions less than 20% compared to the untreated control were regarded as negligible and were not given numerically.

[2] = system: MDA-MB-231; experiment: Antiproliferative MTT assay; format: cell-based, human; details: 30 μM pure natural product, 72 h
Experimental: as §1, §2, §3, §4, §5, §6

## COC(=O)C1=CO[C@@H](C)[C@@H]2CN3CC[C@@]4(C(=O)Nc5ccccc54)[C@@H]3C[C@H]12 [isopteropodine]
[1]
  Cell growth inhibition at the highest concentration (% ± SEM): < 20%
[2]
  Cell growth inhibition at the highest concentration (% ± SEM): < 20%

## COC(=O)C1=CO[C@@H](C)[C@H]2CN3CC[C@]4(C(=O)Nc5ccccc54)[C@@H]3C[C@H]12 [mitraphylline]
[1]
  Cell growth inhibition at the highest concentration (% ± SEM): < 20%
[2]
  Cell growth inhibition at the highest concentration (% ± SEM): < 20%
